Target: T1, Phospholipase A2, membrane associated (Homo sapiens) (UniProt P14555)
T1 sequence (whole entry): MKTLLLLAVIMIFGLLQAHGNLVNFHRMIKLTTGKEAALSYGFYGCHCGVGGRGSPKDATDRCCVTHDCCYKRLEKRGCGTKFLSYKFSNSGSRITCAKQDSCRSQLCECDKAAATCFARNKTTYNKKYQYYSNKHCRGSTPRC
Experiment: Inhibitory activity against human synovial fluid phospholipase A2 (HSF-PLA2).
Set-up: concentration or dose not given beside the values
Settings: concentration not given here

Row | Compound | inhibition [%]
1 | CCCCCCCCCCC(=O)NC(CCCCCC)COP(=O)(O)OCCNCc1ccccc1 (stereo not given) | 28
2 | CCCCCCCCCCS(=O)(=O)N[C@H](CCCCCC)COP(=O)(O)OCCO (stereo in doubt; form 1) | 44
3 | CCCCCCCCCCCC(=O)NC(CCCCCC)COP(=O)(O)OCCO (stereo not given) | 65
4 | CCCCCCCCCCS(=O)(=O)N[C@@H](CCCCCC)COP(=O)(O)OCCO | 40
5 | CCCCCCCCCCS(=O)(=O)NC(CCCCCC)COP(=O)(O)OCCCC (stereo not given) | 0

Now from value to compound:

Row | inhibition [%] | Compound
6 | 0 | CCCCCCCCCCS(=O)(=O)NC(CCCCCC)COCC(F)(F)F (stereo not given)
7 | 45 | CCCCCCCCCCS(=O)(=O)N[C@H](CCCCCC)COP(=O)(O)OCCO (stereo in doubt; form 2)
8 | 36 | CCCCCCCCCCS(=O)(=O)NC(CCCCCC)COP(=O)(O)OCCO (stereo not given)
9 | 29 | CCCCCCCCCCS(=O)(=O)CC(CCCCCC)COP(=O)(O)OCCO (stereo not given)
10 | 78 | CCCCCCCCCCS(=O)(=O)N[C@H](CCCCCC)COP(=O)(O)OCCOCc1ccccc1
